Assay results taken from ChEMBL document CHEMBL1909046, “DrugMatrix in vitro pharmacology data”.

How the values were obtained:
[1] = target: Melanocortin receptor 5 (Homo sapiens, UniProt P33032); assay type: cell membranes, HEK293, Membrane; conditions: hek293; further: in other assays of this panel Not Active means under 50% inhibition at 10 µM
[2] = target: T1, 5-hydroxytryptamine receptor 1A (Rattus norvegicus, UniProt P19327); assay type: cell membranes, CHO-K1, Membrane; conditions: cho-k1; further: in other assays of this panel Not Active means under 50% inhibition at 10 µM
T1 sequence (P19327 whole entry): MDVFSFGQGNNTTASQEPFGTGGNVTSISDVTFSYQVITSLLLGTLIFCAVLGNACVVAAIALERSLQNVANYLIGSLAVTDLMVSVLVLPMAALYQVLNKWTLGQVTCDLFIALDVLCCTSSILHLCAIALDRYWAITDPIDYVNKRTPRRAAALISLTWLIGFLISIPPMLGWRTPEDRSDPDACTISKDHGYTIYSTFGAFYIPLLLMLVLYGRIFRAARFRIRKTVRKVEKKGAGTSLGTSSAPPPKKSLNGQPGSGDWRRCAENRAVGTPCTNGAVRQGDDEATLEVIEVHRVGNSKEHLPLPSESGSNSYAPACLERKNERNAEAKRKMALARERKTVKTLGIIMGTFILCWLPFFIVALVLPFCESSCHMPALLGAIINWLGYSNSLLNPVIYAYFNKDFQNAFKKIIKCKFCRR

[3] = target: T2, Alpha-1D adrenergic receptor (Homo sapiens, UniProt P25100); assay type: cell membranes, HEK293, Membrane; conditions: hek293; further: in other assays of this panel Not Active means under 50% inhibition at 10 µM
T2 sequence (P25100 whole entry): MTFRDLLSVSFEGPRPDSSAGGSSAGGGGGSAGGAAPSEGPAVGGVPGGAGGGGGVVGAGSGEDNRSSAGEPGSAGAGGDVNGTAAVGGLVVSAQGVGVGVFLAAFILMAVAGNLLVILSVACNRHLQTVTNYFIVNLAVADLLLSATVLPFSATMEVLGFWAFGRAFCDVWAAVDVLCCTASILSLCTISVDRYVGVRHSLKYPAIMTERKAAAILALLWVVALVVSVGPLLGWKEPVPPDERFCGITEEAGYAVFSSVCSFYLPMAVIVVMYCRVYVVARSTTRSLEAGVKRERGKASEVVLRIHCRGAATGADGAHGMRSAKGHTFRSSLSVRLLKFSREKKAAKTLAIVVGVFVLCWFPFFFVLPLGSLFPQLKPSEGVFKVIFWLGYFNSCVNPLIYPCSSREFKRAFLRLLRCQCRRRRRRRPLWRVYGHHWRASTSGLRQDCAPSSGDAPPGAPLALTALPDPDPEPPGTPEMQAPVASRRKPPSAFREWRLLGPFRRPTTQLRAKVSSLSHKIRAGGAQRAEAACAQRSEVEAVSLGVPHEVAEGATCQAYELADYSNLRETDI

[4] = DRUGMATRIX: Phorbol Ester radioligand binding (ligand: [3H] PDBu); assay type: cell membranes, Mus musculus, ICR, Brain, Membrane; conditions: Not Active = under 50% inhibition at 10 µM
[5] = DRUGMATRIX: Atrial Natriuretic Factor (ANF) radioligand binding (ligand: [125I] ANF (rat)); assay type: cell membranes, Cavia porcellus, Dunkin-Hartley, Adrenal gland, Membrane; conditions: Not Active = under 50% inhibition at 10 µM
[6] = target: C-C chemokine receptor type 2 (Homo sapiens, UniProt P41597); assay type: cell membranes, CHO-K1, Membrane; conditions: cho-k1; further: in other assays of this panel Not Active means under 50% inhibition at 10 µM
Chain of C-C chemokine receptor type 2 (P41597 whole entry): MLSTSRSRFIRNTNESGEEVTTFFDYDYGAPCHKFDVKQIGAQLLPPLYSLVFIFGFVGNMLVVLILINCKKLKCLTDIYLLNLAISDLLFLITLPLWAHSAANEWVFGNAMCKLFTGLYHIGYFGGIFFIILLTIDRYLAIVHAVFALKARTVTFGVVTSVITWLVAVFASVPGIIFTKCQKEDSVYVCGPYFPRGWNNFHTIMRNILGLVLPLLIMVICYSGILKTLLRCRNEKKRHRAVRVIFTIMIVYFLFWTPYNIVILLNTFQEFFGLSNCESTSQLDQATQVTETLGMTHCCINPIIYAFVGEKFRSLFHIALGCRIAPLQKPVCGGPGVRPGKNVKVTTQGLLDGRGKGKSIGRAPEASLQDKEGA

Chain of Melanocortin receptor 5 (P33032 whole entry): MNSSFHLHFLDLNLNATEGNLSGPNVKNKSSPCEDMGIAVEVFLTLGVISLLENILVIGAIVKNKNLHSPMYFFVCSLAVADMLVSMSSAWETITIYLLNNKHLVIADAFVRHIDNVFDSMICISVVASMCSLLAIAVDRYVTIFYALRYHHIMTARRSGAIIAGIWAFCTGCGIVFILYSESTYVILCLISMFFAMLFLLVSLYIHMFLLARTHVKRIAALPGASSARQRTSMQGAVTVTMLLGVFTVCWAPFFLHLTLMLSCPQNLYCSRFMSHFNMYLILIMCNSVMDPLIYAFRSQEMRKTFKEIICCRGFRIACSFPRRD

CC(N)C12CC3CC(CC(C3)C1)C2 (configuration not stated) [RIMANTADINE]
Not Active: IC50 [1] | IC50 [2] | IC50 [3] | IC50 [4] | Ki [4] | IC50 [5] | Ki [5] | IC50 [6]

CC[C@H](C)C(=O)O[C@H]1CCC=C2C=C[C@H](C)[C@H](CC[C@@H]3C[C@@H](O)CC(=O)O3)[C@H]21 [MEVASTATIN]
Not Active: IC50 [1] | IC50 [2] | IC50 [3] | IC50 [4] | Ki [4] | IC50 [5] | Ki [5] | IC50 [6]

O=C(OC[C@H]1O[C@@H](OC(=O)c2cc(O)c(O)c(OC(=O)c3cc(O)c(O)c(O)c3)c2)[C@H](OC(=O)c2cc(O)c(O)c(OC(=O)c3cc(O)c(O)c(O)c3)c2)[C@@H](OC(=O)c2cc(O)c(O)c(OC(=O)c3cc(O)c(O)c(O)c3)c2)[C@@H]1OC(=O)c1cc(O)c(O)c(OC(=O)c2cc(O)c(O)c(O)c2)c1)c1cc(O)c(O)c(OC(=O)c2cc(O)c(O)c(O)c2)c1 [TANNIC ACID]
Not Active: IC50 [1] | IC50 [2] | IC50 [3] | IC50 [4] | Ki [4] | IC50 [5] | Ki [5] | IC50 [6]

LEAD(IV) ACETATE
Not Active: IC50 [1] | Ki [1] | IC50 [2] | Ki [2] | IC50 [3] | Ki [3] | IC50 [4] | Ki [4] | IC50 [5] | Ki [5] | IC50 [6] | Ki [6]

CO[C@@H]1[C@@H](OC)[C@H](C)[C@@](O)(CC(=O)O)O[C@H]1[C@H](C)[C@H]1O[C@@]2(CC[C@@](C)([C@H]3CC[C@@](C)([C@@H]4O[C@@H]([C@H]5O[C@](C)(O)[C@H](C)C[C@@H]5C)C[C@@H]4O[C@@H]4C[C@H](OC)[C@@H](OC)[C@H](C)O4)O3)O2)C[C@H](O)[C@H]1C.N [MADURAMICIN]
Not Active: IC50 [1] | IC50 [2] | IC50 [3] | IC50 [4] | Ki [4] | IC50 [5] | Ki [5] | IC50 [6]

C[N+]1(C)[C@@H]2C[C@@H](OC(=O)[C@H](CO)c3ccccc3)C[C@H]1[C@@H]1O[C@@H]12.[Br-] [METHSCOPOLAMINE BROMIDE]
Not Active: IC50 [1] | IC50 [2] | IC50 [3] | IC50 [4] | Ki [4] | IC50 [5] | Ki [5] | IC50 [6]

Cc1nnc(NS(=O)(=O)c2ccc(N)cc2)s1 [SULFAMETHIZOLE]
Not Active: IC50 [1] | IC50 [2] | IC50 [3] | IC50 [4] | Ki [4] | IC50 [5] | Ki [5] | IC50 [6]

Cc1ccc(S(=O)(=O)NC(=O)NN2CCCCCC2)cc1 [TOLAZAMIDE]
Not Active: IC50 [1] | IC50 [2] | IC50 [3] | IC50 [4] | Ki [4] | IC50 [5] | Ki [5] | IC50 [6]

CCC(C)(C)C(=O)O[C@H]1C[C@@H](C)C=C2C=C[C@H](C)[C@H](CC[C@@H]3C[C@@H](O)CC(=O)O3)[C@H]21 [SIMVASTATIN]
Not Active: IC50 [1] | IC50 [2] | IC50 [3] | IC50 [4] | Ki [4] | IC50 [5] | Ki [5] | IC50 [6]

Cc1ccnc(NS(=O)(=O)c2ccc(N)cc2)n1 [SULFAMERAZINE]
Not Active: IC50 [1] | IC50 [2] | IC50 [3] | IC50 [4] | Ki [4] | IC50 [5] | Ki [5] | IC50 [6]

OC[C@@H](O)[C@@H](O)[C@H](O)[C@H](O)CO [MANNITOL]
Not Active: IC50 [1] | IC50 [2] | IC50 [3] | IC50 [4] | Ki [4] | IC50 [5] | Ki [5] | IC50 [6]
